This is an account of results in ChEMBL document CHEMBL1139416, “Synthesis of a C-glucosylated cyclopropylamide and evaluation as a glycogen phosphorylase inhibitor” (Bioorg Med Chem Lett, 2008).

Active and inactive are the calls of the source. The calls are words filed in the database; no cut-off is given here.

The species named for test [1] is Oryctolagus cuniculus. The experiment in a line: Inhibition of rabbit muscle glycogen phosphorylase b at 2.5 mM.
The species entered for test [2] is Oryctolagus cuniculus. The experiment in a line: Inhibition of rabbit muscle glycogen phosphorylase b at 625 uM.

As to `O=C(NC1([C@@H]2O[C@H](CO)[C@@H](O)[C@H](O)[C@H]2O)CC1)c1ccccc1`, the inhibition in test [1] worked out at 16%. The result in test [2] was inactive.
